{"source": "patent US8530651B2", "about": "“Process for the preparation of anagrelide and analogues” (Shire LLC, priority 2008, dated 2013)", "origin": "cited, not measured here", "key": {"[1]": {"details": "solid"}, "[2]": {"details": "monkeys; radiolabeled base"}, "[3]": {"details": "humans; radiolabeled base"}}, "note": "Read-outs that look alike come from different tables or passages of the source.", "data": [{"smiles": "O=C1CN2Cc3c(ccc(Cl)c3Cl)N=C2N1", "note": "[anagrelide base, 6,7-dichloro-1,5-dihydroimidazo[2,1-b]quinazolin-2 (3H)-one]", "values": [{"measurement": "aqueous solubility", "setting": "[1]", "result": "low aqueous solubility"}, {"measurement": "absorption into blood plasma", "setting": "[2]", "result": "complete absorption"}, {"measurement": "absorption into blood plasma", "setting": "[3]", "result": "complete absorption"}]}]}
